The source made the active and inactive calls. The rule behind the calls is not given here. Residues, ends and D or L forms follow the SMILES beside them.

Drawing on ChEMBL document CHEMBL4706668, “Minimization of apoptosis-inducing CPP-Bim peptide” (Bioorg Med Chem Lett, 2021), this text covers Activity and Drug uptake for 17 compounds.

Series [1] has as its system HeLa. The experiment in a line: Induction of apoptosis in human HeLa cells at 10 uM incubated for 3 hrs followed by compound washout by NucView-488 staining based fluorescence microscopy. The format is functional, cell-based.
Series [2] deals with CHO. The experiment in a line: Induction of apoptosis in CHO cells at 10 uM incubated for 3 hrs followed by compound washout by NucView-488 staining based fluorescence microscopy. The format is cell-based, Cricetulus griseus. The following applies: chinese hamster.
The nature of series [3]: Drug distribution in cytosol of human HeLa cells at 2 uM incubated for 3 hrs followed by compound washout and subsequent irradiation with mercury lamp at 10J/cm2 using Alexa Fluor-546 labeled compound by fluorescence microscopy. The format is ADME, subcellular.
Series [4] deals with HeLa. The experiment in a line: Induction of apoptosis in human HeLa cells at 10 uM incubated for 3 hrs followed by compound washout by NucView-488 staining based fluorescence microscopy relative to control. The format is functional.
For series [5], the system named is CHO. The experiment in a line: Induction of apoptosis in CHO cells at 10 uM incubated for 3 hrs followed by compound washout by NucView-488 staining based fluorescence microscopy relative to control. The format is cell-based, Cricetulus griseus. Conditions: chinese hamster.
In series [6] the test system is HeLa. The experiment in a line: Induction of apoptosis in human HeLa cells at 2 uM incubated for 3 hrs followed by compound washout and subsequent irradiation with mercury lamp at 10J/cm2 and further incubated for 3 hrs using Alexa Fluor-546 labeled compound by fluorescence microscopy. The format is functional, cell-based.

Turning to `CC[C@H](C)[C@H](NC(=O)[C@H](CCCNC(=N)N)NC(=O)[C@H](CCCNC(=N)N)NC(=O)[C@H](CC(C)C)NC(=O)[C@H](CCC(=O)O)NC(=O)[C@H](CS)NC(=O)[C@H](C)NC(=O)[C@@H](NC(=O)[C@H](Cc1c[nH]c2ccccc12)NC(=O)[C@@H](NC(=O)[C@H](CCCNC(=N)N)NC(=O)[C@H](CCCNC(=N)N)NC(=O)[C@H](CCCNC(=N)N)NC(=O)[C@@H](N)CCCNC(=N)N)[C@@H](C)CC)[C@@H](C)CC)C(=O)NCC(=O)N[C@@H](CC(=O)O)C(=O)N[C@@H](CCC(=O)O)C(=O)N[C@@H](Cc1ccccc1)C(=O)N[C@@H](CC(N)=O)C(=O)N[C@@H](C)C(=O)N[C@@H](Cc1ccc(O)cc1)C(=O)N[C@@H](Cc1ccc(O)cc1)C(=O)NCC(=O)N[C@@H](CS)C(=O)O` (H-RRRRIWIACELRRIGDEFNAYYGC-OH), the outcome in series [1] was inactive. In series [2], the Activity result is recorded as “Not Active”.

On to H-RKKRRQRRRAQELRRIGDEFNAYYARGC-OH, for which the outcome in series [1] was inactive. As for H-RKKRRQRRREIWIAQELRRIGC-OH, the result in series [1] was inactive. Same read-out and setting: in the case of H-RKKRRQRRREIWIAQELRRIGDEFGC-OH it was “inactive”.

As to H-RKKRRQRRREIWIAQELRRIGDEFNAGC-OH, the result in series [1] was inactive.

On to H-RKKRRQRRREIWIAQELRRIGDEFNAYYARGC-OH, for which the Drug uptake result in series [3] is “Active”. Regarding H-RKKRRQRRREIWIAQELRRIGDEFNAYYGC-OH, the Activity in series [4] was 79%; in series [5], 44%. H-RKKRRQRRREIWIAQELRRIGDGC-OH: in series [1], the outcome was inactive. For the compound H-RKKRRQRRRIAQELRRIGDEFNAYYARGC-OH, the result in series [1] was inactive. Turning to H-RKKRRQRRRIWIAQELRRIGDEFNAYYARGC-OH, the values for the Activity in series [4] and in series [5] were 85% and 31%, respectively. Regarding H-RKKRRQRRRIWIAQELRRIGDEFNAYYGC-OH, the Drug uptake result in series [3] is listed as “Active”. Also, in series [6], the outcome was Active. For the compound H-RKKRRQRRRWGC-OH, in series [6], the result was inactive. For the compound H-RKKRRQRRRWIAQELRRIGDEFNAYYARGC-OH, the outcome in series [1] was Active. The same measure, in the same setting: in the case of H-RKKRRQRRRWIAQELRRIGDGC-OH it was “Active”.

H-RRIWIAQELRRIGDEFNAYYGC-OH: the result in series [1] was inactive. Also, the Activity result in series [2] is on record as “Not Active”. For the compound H-RRRRRRIWIAQELRRIGDEFNAYYGC-OH, the outcome in series [1] was inactive. Besides, the Activity result in series [2] is “Not Active”. Turning to H-RRRRRRRRIWIAQELRRIGDEFNAYYGC-OH, the outcome in series [1] and in series [6] was Active. For the same compound, the Drug uptake result in series [3] is on record as “Active”. The Activity in series [4] is on record as 70%.
